ChEMBL document CHEMBL4673243, “Discovery of 9-Cyclopropylethynyl-2-((S)-1-[1,4]dioxan-2-ylmethoxy)-6,7-dihydropyrimido[6,1-a]isoquinolin-4-one (GLPG1205), a Unique GPR84 Negative Allosteric Modulator Undergoing Evaluation in a Phase II Clinical Trial” (J Med Chem, 2020)
In brackets after ≈: the same amount, converted by molar mass.

How the values were obtained:
Cytochrome P450 3A4 [1] = target: T1, Cytochrome P450 3A4 (Homo sapiens, UniProt P08684); experiment: Inhibition of CYP3A4 in human liver microsomes using midazolam as substrate and in presence of co-factor preincubated for 20 mins followed by substrate addition by LC-MS/MS analysis
T1 sequence (P08684 whole entry): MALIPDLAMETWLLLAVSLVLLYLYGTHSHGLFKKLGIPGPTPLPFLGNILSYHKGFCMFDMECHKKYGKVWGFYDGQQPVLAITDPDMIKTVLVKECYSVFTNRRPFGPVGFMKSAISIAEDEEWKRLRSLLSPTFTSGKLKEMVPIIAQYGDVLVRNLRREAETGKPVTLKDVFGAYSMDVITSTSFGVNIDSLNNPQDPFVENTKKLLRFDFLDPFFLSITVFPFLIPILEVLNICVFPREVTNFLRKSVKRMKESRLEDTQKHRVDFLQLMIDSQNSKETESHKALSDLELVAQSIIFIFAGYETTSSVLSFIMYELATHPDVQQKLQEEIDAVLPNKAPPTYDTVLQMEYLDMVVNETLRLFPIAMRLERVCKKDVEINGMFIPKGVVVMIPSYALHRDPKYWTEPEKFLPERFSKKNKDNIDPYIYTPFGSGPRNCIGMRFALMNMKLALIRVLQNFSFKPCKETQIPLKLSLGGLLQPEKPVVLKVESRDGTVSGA

in vivo [2] = details: CD1, mouse, iv, 1 mg/kg
[3] = target: Cytochrome P450 2C9 (Homo sapiens) (UniProt P11712)
Cytochrome P450 2C9 (Homo sapiens), sequence (P11712 whole entry, looked up): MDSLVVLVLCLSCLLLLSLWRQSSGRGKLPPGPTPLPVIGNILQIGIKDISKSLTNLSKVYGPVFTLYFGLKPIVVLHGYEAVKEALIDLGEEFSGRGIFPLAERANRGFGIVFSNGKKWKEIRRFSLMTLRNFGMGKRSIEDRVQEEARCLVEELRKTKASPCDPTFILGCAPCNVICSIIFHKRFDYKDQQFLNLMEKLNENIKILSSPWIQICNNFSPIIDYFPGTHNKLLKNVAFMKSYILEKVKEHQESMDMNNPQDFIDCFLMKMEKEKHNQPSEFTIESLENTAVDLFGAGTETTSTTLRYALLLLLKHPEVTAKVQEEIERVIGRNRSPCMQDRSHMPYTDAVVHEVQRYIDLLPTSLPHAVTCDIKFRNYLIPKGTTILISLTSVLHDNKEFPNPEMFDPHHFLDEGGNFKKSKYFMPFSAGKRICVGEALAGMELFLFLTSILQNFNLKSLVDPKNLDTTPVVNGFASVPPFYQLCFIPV

[4] = target: Cytochrome P450 2D6 (Homo sapiens) (UniProt P10635)
Cytochrome P450 2D6 (Homo sapiens), sequence (P10635 whole entry, looked up): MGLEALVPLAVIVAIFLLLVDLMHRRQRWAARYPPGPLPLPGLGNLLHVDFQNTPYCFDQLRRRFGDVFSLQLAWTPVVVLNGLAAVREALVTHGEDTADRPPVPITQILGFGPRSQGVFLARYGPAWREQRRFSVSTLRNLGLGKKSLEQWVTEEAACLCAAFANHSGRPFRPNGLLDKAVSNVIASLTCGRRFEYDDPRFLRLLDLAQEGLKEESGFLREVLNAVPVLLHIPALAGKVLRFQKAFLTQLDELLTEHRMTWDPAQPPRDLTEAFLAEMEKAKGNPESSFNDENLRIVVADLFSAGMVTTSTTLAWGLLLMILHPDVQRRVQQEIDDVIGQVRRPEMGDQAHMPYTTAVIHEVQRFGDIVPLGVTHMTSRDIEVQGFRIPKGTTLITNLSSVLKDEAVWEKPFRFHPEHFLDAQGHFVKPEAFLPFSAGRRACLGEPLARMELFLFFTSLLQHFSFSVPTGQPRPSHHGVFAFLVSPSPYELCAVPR

in vitro [5] = details: dog, liver microsomes
in vivo [6] = details: CD1, mouse, po, 5 mg/kg
physchem [7] = details: aqueous solution with 2% DMSO, pH 7.4
[8] = Plasma protein binding in rat at 5 uM measured after 4 hrs by LC-MS/MS analysis
[9] = Inhibition of embelin-induced migration of rat neutrophils preincubated for 30 mins followed by embelin addition and measured after 1 hr by celltiter-glo assay; details: Neutrophil
in vitro [10] = details: dog, cryopreserved hepatocytes
Cytochrome P450 3A4 [11] = target: T1, Cytochrome P450 3A4; experiment: Inhibition of human CYP3A4 in human liver microsomes using testosterone as substrate and in presence of co-factor preincubated for 20 mins followed by substrate addition by LC-MS/MS analysis
in vivo [12] = details: CD1, mouse, po, 5 mg/kg; remark: listed apart in the source
[13] = Plasma protein binding in dog at 5 uM measured after 4 hrs by LC-MS/MS analysis
physchem [14] = details: aqueous solution with 2% DMSO, pH 3
[15] = Clearance in CD1 mouse at 1 mg/kg, iv administered as single bolus dose using PEG-200/saline formulation measured after 24 hrs by LC-MS/MS analysis; details: in vivo
in vivo [16] = details: male, Sprague-Dawley, rat, po
in vivo [17] = details: Balb/c, mouse, plasma, po, 3 mg/kg
[18] = Clearance in Beagle dog at 0.5 mg/kg, iv administered as 10 mins infusion via catheter by LC-MS/MS analysis; details: in vivo
Mus musculus = species on record: Mus musculus; experiment: Antiinflammatory activity in Balb/cj mouse model of DSS-induced colitis assessed as minimum effective dose; details: read-out: MED
in vitro [19] = details: mouse, cryopreserved hepatocytes
in vitro [20] = details: rat, liver microsomes
in vivo [21] = details: male, Sprague-Dawley, rat, po; remark: listed apart in the source
Description: Half-life in male Sprague-Dawley rat at 2.5 mg/kg, po administered as single gavage dose using PEG-200/water formulation measured after 24 hrs by LC-MS/MS analysis

in vivo [22] = details: male, Sprague-Dawley, rat, po; remark: listed apart in the source
[23] = Initial plasma concentration in male Sprague-Dawley rat at 0.5 mg/kg, iv administered as single bolus dose using PEG-200/NaCl formulation measured after 24 hrs by LC-MS/MS analysis
[24] = Apparent permeability from apical to basolateral in human Caco2 cells at 10 uM measured after 60 mins by lucifer yellow dye based LC-MS/MS analysis; details: Caco-2
in vivo [25] = details: Beagle, dog, po
[26] = Volume of distribution at steady state in CD1 mouse at 1 mg/kg, iv administered as single bolus dose using PEG-200/saline formulation measured after 24 hrs by LC-MS/MS analysis; details: in vivo
[27] = Volume of distribution at steady state in male Sprague-Dawley rat at 0.5 mg/kg, iv administered as single bolus dose using PEG-200/NaCl formulation measured after 24 hrs by LC-MS/MS analysis; details: in vivo
Cytochrome P450 2C19 = Cytochrome P450 2C19 (Homo sapiens, UniProt P33261); experiment: Inhibition of CYP2C19 in human liver microsomes using probe substrate and in presence of co-factor preincubated for 20 mins followed by substrate addition by LC-MS/MS analysis
Cytochrome P450 2C19, sequence (P33261 whole entry): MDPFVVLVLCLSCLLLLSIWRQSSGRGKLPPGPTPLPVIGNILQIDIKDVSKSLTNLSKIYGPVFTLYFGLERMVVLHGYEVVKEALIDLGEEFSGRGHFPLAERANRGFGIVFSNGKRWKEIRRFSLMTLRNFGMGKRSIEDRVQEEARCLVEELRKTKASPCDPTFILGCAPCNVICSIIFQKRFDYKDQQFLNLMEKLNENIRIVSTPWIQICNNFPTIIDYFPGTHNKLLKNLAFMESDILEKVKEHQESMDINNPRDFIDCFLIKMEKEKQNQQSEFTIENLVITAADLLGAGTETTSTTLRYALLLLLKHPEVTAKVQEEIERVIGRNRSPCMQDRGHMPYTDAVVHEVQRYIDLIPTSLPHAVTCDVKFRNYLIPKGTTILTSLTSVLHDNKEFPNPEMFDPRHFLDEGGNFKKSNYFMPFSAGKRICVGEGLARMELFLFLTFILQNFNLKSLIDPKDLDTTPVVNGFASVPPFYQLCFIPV

in vitro [28] = details: human, cryopreserved hepatocytes
in vivo [29] = details: CD1, mouse, po, 5 mg/kg; remark: listed apart in the source
in vitro [30] = details: human, liver microsomes
Cytochrome P450 1A2 = target: T2, Cytochrome P450 1A2 (Homo sapiens, UniProt P05177); experiment: Inhibition of CYP1A2 in human liver microsomes using probe substrate and in presence of co-factor preincubated for 20 mins followed by substrate addition by LC-MS/MS analysis
T2 sequence (P05177 whole entry): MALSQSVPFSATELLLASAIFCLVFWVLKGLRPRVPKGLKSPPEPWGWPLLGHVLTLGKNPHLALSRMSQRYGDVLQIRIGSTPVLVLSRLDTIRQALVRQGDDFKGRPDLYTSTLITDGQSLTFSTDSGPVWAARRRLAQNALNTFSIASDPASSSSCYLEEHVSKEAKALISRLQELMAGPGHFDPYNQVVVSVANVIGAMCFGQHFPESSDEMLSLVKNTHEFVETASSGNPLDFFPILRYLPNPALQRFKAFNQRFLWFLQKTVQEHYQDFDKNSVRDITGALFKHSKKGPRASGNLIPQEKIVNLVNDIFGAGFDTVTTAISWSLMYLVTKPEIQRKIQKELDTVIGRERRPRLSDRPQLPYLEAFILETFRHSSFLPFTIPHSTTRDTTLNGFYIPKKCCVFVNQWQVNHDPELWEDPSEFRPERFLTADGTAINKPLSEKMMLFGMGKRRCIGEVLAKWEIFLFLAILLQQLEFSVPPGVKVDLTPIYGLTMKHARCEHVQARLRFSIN

[31] = Half-life in male Sprague-Dawley rat at 0.5 mg/kg, iv administered as single bolus dose using PEG-200/NaCl formulation measured after 24 hrs by LC-MS/MS analysis; details: in vivo
in vitro [32] = details: mouse, cryopreserved hepatocytes; remark: listed apart in the source
in vitro [33] = details: dog, cryopreserved hepatocytes; remark: listed apart in the source
in vivo [34] = details: male, Sprague-Dawley, rat, iv, 0.5 mg/kg
in vivo [35] = details: CD1, mouse, po, 5 mg/kg; remark: listed apart in the source
Description: Half-life in CD1 mouse at 5 mg/kg, po administered as single esophageal gavage dose post 12 hr fasting using PEG-200/water formulation measured after 24 hrs by LC-MS/MS analysis

Cytochrome P450 3A4 [36] = target: T1, Cytochrome P450 3A4; experiment: Time-dependent inhibition of CYP3A4 in human liver microsomes using midazolam as substrate and in presence of co-factor by LC-MS/MS analysis
[37] = Clearance in male Sprague-Dawley rat at 0.5 mg/kg, iv administered as single bolus dose using PEG-200/NaCl formulation measured after 24 hrs by LC-MS/MS analysis; details: in vivo
[38] = Thermodynamic solubility of compound at pH 3; details: buffer

IC50 (Cytochrome P450 3A4 [1]): > 50 µM
AUC(0-t) at 24 h (in vivo [2]): 1050 ng·h/mL
IC50 [3]: 34.6 µM
IC50 [4]: > 100 µM
CLint scaled at 0.5 h, 1 µM (in vitro [5]): 89 mL/min/kg
bioavailability at 24 h (in vivo [6]): > 100%
solubility (physchem [7]): 113 µg/mL (≈ 299 µM)
fraction unbound at 4 h, 5 µM [8]: 0.023
half-life at 1 µM (in vitro [10]): > 200 min
IC50 (Cytochrome P450 3A4 [11]): > 50 µM
Tmax at 24 h (in vivo [12]): 30 min
fraction unbound at 4 h, 5 µM [13]: 0.065
solubility (physchem [14]): 113 µg/mL (≈ 299 µM)
clearance at 24 h [15]: 15 mL/min/kg
Cmax at 24 h (in vivo [16]): 1160 ng/mL
Tmax (in vivo [17]): 1 h
clearance at […] [18]: 20 mL/min/kg
half-life at 1 µM (in vitro [19]): > 200 min
CLint scaled at 0.5 h, 1 µM (in vitro [20]): 66.7 mL/min/kg
half-life at 24 h (in vivo [21]): 78 min
AUC(0-t) at 24 h (in vivo [22]): 4470 ng·h/mL
C0 at 24 h [23]: 395 ng/mL
Papp A→B at 1 h, 10 µM [24]: 41.9 ×10⁻⁶ cm/s
Tmax (in vivo [25]): 30 min
Vd at 24 h [26]: 0.6 L/kg
Vd at 24 h [27]: 1.2 L/kg
IC50 (Cytochrome P450 2C19): > 100 µM
half-life at 1 µM (in vitro [28]): > 200 min
AUC(0-t) at 24 h (in vivo [29]): 15300 ng·h/mL
CLint scaled at 0.5 h, 1 µM (in vitro [30]): < 19.3 mL/min/kg
IC50 (Cytochrome P450 1A2): > 100 µM
half-life at 24 h [31]: 60 min
CLint scaled at 1 µM (in vitro [32]): < 72.8 mL/min/kg
CLint scaled at 1 µM (in vitro [33]): < 24.2 mL/min/kg
AUC(0-t) at 24 h (in vivo [34]): 710 ng·h/mL
half-life at 24 h (in vivo [35]): 114 min
IC50 (Cytochrome P450 3A4 [36]): > 50 µM
clearance at 24 h [37]: 11.7 mL/min/kg
solubility thermodynamic [38]: 12.6 µg/mL (≈ 33.3 µM)
SMILES: O=c1nc(OC[C@@H]2COCCO2)cc2n1CCc1cc(C#CC3CC3)ccc1-2 [GLPG-1205]
IC50 [9]: 111 nM
minimal effective dose (Mus musculus): 3 mg/kg
